Laboratory results: ChEMBL document CHEMBL3124802, “Scrutinizing the scaffolds of marine biosynthetics from different source organisms: Gram-negative cultured bacterial products enter center stage” (J Nat Prod, 2014)
≈ marks a conversion by molar mass, not a printed value. Where a SMILES comes first, the peptide text is derived from it. Bridges are numbered along the chain shown (N, C = ends). The star is where a group is joined. X1 = O=C(/C=C/C=C/C=C/C=C/c1ccc(O)c(Br)c1)*

Experiments:
[1] = Cytotoxicity against sea urchin eggs; parameters: species or system Egg; settings: strongylocentrotus intermedius, read-out: MIC
[2] = system: Candida albicans; assay: Antimicrobial activity against Candida albicans; format: functional
[3] = Antioxidant activity assessed as singlet oxygen quenching activity; format: functional

Row | Compound | MCC [1] | other results
1 | CC(C)C[C@@H]1NC(=O)[C@H](CC(N)=O)NC(=O)[C@H](CC(N)=O)NC(=O)[C@H](C(C)C)NC(=O)[C@@H](NC(=O)/C=C/C=C/C=C/C=C/c2ccc(O)c(Br)c2)[C@@H](C)OC1=O (X1-TVNNL; ester 1-C) | 40 µg/mL | 
2 | CC[C@@H](C)[C@@H]1NC(=O)[C@H](CC(N)=O)NC(=O)[C@H](CC(N)=O)NC(=O)[C@H](C(C)C)NC(=O)[C@@H](NC(=O)/C=C/CCCCCCc2ccc(O)c(Br)c2)[C@@H](C)OC1=O | 40 µg/mL | 
3 | CC[C@@H](C)[C@@H]1NC(=O)[C@H](CC(N)=O)NC(=O)[C@H](CC(N)=O)NC(=O)[C@H](C(C)C)NC(=O)[C@@H](NC(=O)CCCCCCCCc2ccc(O)c(Br)c2)[C@@H](C)OC1=O | 40 µg/mL | 
4 | C/C1=C\[C@H](C)C[C@H](C)OC(=O)C[C@H](c2ccc(O)cc2)NC(=O)[C@@H](Cc2c(Br)[nH]c3ccccc23)N(C)C(=O)[C@H](C)NC(=O)[C@@H](C)C1 [JASPAMIDE] |  | MIC [2]: 25 µg/mL (≈ 35.2 µM)
5 | CC[C@@H](C)[C@@H]1NC(=O)[C@H](CC(N)=O)NC(=O)[C@H](CC(N)=O)NC(=O)[C@H](C(C)C)NC(=O)[C@@H](NC(=O)/C=C/C=C/C=C/C=C/c2ccc(O)c(Br)c2)[C@@H](C)OC1=O | 40 µg/mL | 
6 | CC[C@@H](C)[C@@H]1NC(=O)[C@H](CC(N)=O)NC(=O)[C@H](CC(N)=O)NC(=O)[C@H](C(C)C)NC(=O)[C@@H](NC(=O)CCCCCCCCc2ccc(O)cc2)[C@@H](C)OC1=O | 40 µg/mL | 
7 | CC(/C=C/C=C(C)/C=C/C=C(\C)C(=O)O)=C\C=C\C=C(C)\C=C\C=C(C)\C=C\C=C(/C)C(=O)O[C@@H]1OC[C@@H](O)[C@H](O)[C@H]1OC(=O)CCCCCCCCCCC(C)C |  | IC50 [3]: 5.1 µM
